The record followed here is patent US8748412B2, “Phenylalanine derivatives and their use as non-peptide GLP-1 receptor modulators” (Argusina Bioscience Inc., priority 2011, dated 2014).

For one assay, the target named is T1, human GLP1R (Homo sapiens, UniProt P43220).
T1 construct: expressed in transfected cells; host or cells: CHO cells (ATCC), transient transfection with pCMV-human GLP1R
T1 sequence (P43220 24-463): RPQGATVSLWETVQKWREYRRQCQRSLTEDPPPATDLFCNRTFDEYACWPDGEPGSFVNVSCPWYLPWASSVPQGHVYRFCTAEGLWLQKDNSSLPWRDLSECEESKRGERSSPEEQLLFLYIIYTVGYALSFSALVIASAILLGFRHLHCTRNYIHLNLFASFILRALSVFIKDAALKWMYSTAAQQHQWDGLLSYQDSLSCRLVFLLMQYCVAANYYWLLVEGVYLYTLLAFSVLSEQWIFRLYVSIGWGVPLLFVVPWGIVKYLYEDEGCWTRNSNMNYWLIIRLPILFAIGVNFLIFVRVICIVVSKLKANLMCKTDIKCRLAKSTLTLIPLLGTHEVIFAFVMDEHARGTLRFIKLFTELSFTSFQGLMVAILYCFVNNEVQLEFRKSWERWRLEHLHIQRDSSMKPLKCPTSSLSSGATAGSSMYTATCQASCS
Nature of the assay: Human GLP-1 receptor transfected cell assay (MRE/CRE-luciferase reporter gene, agonist activity). It is filed as cell-based. The conditions noted are these: 6 h; conc. 3.16 μM; percentage of the activity of the control; read-out: Agonist Activity. The method in brief: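 CHO cells transiently co-transfected with human GLP1R and MRE/CRE-driven luciferase reporter plasmids. Compound or GLP-1 (7-36 amide) standard dilution series added for 6 h at 37 °C, 5% CO2. Agonist activity read as Bright-Glo luciferase luminescence.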
Background: A reporter such as luciferase makes a cellular process visible.
Turning to `Cc1ccc(-c2ccc(C(=O)NC(Cc3ccc(-c4nnc(-c5ccc(NC(=O)OC(C)(C)C)cc5)o4)c(F)c3)C(=O)O)o2)cc1` (centres unmarked) [Compound 14F], the activation at 3.16 µM was in the range of 40 to 60%.
The same measure, in the same setting: the same measure for `CC(C)(C)OC(=O)Nc1ccc(-c2nc(-c3ccc(CC(NC(=O)c4cncc(-c5ccc(F)cc5)c4)C(=O)O)cc3F)no2)cc1` (centres unmarked) [Compound 14H]: above 60%.

Staying with this assay, now noted: 6 h; conc. 10 μM; percentage of the activity of the control; read-out: Agonist Activity.
With `CC(C)(C)OC(=O)Nc1ccc(-c2nc(-c3ccc(CC(NC(=O)Nc4ccc(-c5ccccc5F)cn4)C(=O)O)cc3F)no2)cc1` (centres unmarked) [Compound 13T], the activation at 10 µM was above 60%.
On the same count and under the same terms, the figure for `Cc1ccccc1-c1ccc(NC(=O)NC(Cc2ccc(-c3noc(-c4ccc(NC(=O)OC(C)(C)C)cc4)n3)c(F)c2)C(=O)O)nc1` (centres unmarked) [Compound 13U] is above 60%; for `CC(C)(C)OC(=O)Nc1ccc(-c2nc(-c3ccc(CC(NC(=O)Nc4ccc(-c5cccc(Cl)c5)cn4)C(=O)O)cc3F)no2)cc1` (centres unmarked) [Compound 13V] it is above 60%.
The same measure, in the same setting: the figure for `CC(C)(C)OC(=O)Nc1ccc(-c2nc(-c3ccc(CC(NC(=O)Nc4ccc(-c5cccc(F)c5)cn4)C(=O)O)cc3F)no2)cc1` (centres unmarked) [Compound 13W] is above 60%; for `CC(C)(C)OC(=O)Nc1ccc(-c2nc(-c3ccc(CC(NC(=O)Nc4ccc(-c5ccccc5)cn4)C(=O)O)cc3F)no2)cc1` (centres unmarked) [Compound 13X] it is above 60%.
Still for that read-out and setting: the figure for `COc1ccc(-c2ccc(NC(=O)NC(Cc3ccc(-c4noc(-c5ccc(NC(=O)OC(C)(C)C)cc5)n4)c(F)c3)C(=O)O)nc2)cc1` (centres unmarked) [Compound 13Y] is above 60%; for `CC(C)(C)OC(=O)Nc1ccc(-c2nc(-c3ccc(CC(NC(=O)Nc4ccc(-c5cccs5)cn4)C(=O)O)cc3F)no2)cc1` (centres unmarked) [Compound 13Z] it is above 60%.
With `Cc1ccc(-c2ccc(C(=O)NC(Cc3ccc(-c4noc(-c5ccc(NC(=O)OC(C)(C)C)cc5F)n4)c(F)c3)C(=O)O)o2)cc1` (centres unmarked) [Compound 14A], the activation at 10 µM is above 60%.
Same read-out and setting: the same measure for `Cc1ccc(-c2cncc(C(=O)NC(Cc3ccc(-c4noc(-c5ccc(NC(=O)OC(C)(C)C)cc5)n4)c(F)c3)C(=O)O)c2)cc1` (centres unmarked) [Compound 14B]: above 60%; for `Cc1ccc(-c2cc(C(=O)NC(Cc3ccc(-c4noc(-c5ccc(NC(=O)OC(C)(C)C)cc5)n4)c(F)c3)C(=O)O)ccn2)cc1` (centres unmarked) [Compound 14C]: above 60%.
Same read-out and setting: the figure for `Cc1ccc(-c2ccc(C(=O)NC(Cc3ccc(-c4noc(-c5ccc(NC(=O)OC(C)(C)C)c(C)c5)n4)c(F)c3)C(=O)O)o2)cc1` (centres unmarked) [Compound 14D] is 40 to 60%; for `COc1ccc(-c2cncc(C(=O)NC(Cc3ccc(-c4noc(-c5ccc(NC(=O)OC(C)(C)C)cc5)n4)c(F)c3)C(=O)O)c2)cc1` (centres unmarked) [Compound 14G] it is above 60%.
